Consider four compounds from patent US20080161327A1, “Substituted 9-Alkyladenines and the Use Thereof” (Aderis Pharmaceuticals, Inc., priority 2005, published 2008).

Assay [1] deals with T1, A3 (h) adenosine receptor (Homo sapiens, UniProt P0DMS8).
T1 construct: expressed in transfected cells
T1 sequence (P0DMS8 1-318): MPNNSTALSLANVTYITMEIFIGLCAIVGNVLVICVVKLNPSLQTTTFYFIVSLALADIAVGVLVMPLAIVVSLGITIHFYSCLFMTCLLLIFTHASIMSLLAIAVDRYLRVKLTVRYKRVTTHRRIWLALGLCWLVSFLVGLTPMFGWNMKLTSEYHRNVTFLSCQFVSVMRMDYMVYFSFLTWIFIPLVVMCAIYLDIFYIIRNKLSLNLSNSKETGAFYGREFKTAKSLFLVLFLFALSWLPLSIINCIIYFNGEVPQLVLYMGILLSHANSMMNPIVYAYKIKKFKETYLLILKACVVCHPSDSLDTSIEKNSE
Description: Human recombinant adenosine receptor binding, A3 (h), [3H]AB-MECA. As to conditions: for Ki: Table 8, read-out: Affinity Ki, A3. As to the method: (§1) The compounds of the present invention were subjected to in vitro human recombinant adenosine receptor binding assays. Scintillation counting was used as the method of detection.
(§2) The IC50 values (concentration causing a half-maximal inhibition of control specific binding) and Hill coefficients (nH) were determined by non-linear regression analysis of the competition curves using Hill equation curve fitting (Motulsky, H. and Christopoulos, A., Fitting Models to Biological Data Using Linear and Nonlinear Regression, GraphPad Software Inc. (2003)).
(§3) The inhibition constants (Ki) were calculated from the Cheng Prusoff equation (Motulsky, H. and Christopoulos, A., supra).

Assay [2] addresses T2, A2A (h) adenosine receptor (Homo sapiens, UniProt P29274).
T2 construct: expressed in transfected cells
The experiment in a line: Human recombinant adenosine receptor binding, A2A (h), [3H]CGS 21680. On the procedure:
as §1, §2, §3

In assay [3] the target is T3, A2B (h) adenosine receptor (Homo sapiens, UniProt P29275).
T3 construct: expressed in transfected cells
T3 sequence (P29275 1-332): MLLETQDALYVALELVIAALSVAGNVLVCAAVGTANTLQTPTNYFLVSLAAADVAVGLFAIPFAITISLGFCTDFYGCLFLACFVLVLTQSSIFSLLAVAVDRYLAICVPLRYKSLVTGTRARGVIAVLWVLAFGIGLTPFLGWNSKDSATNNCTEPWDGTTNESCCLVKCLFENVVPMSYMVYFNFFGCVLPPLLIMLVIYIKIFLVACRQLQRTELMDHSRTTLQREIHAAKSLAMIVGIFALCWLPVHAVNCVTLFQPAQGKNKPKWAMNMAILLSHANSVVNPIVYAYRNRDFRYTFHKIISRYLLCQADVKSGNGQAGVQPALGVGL
The experiment in a line: Human recombinant adenosine receptor binding, A2B (h), [3H]MRS 1754. As to conditions: for Ki: Table 8, read-out: Affinity Ki, A2B. As to the method:
as §1, §2, §3

Assay [4] addresses T4, A1 (h) adenosine receptor (Homo sapiens, UniProt P30542).
T4 construct: expressed in transfected cells
T4 sequence (P30542 1-326): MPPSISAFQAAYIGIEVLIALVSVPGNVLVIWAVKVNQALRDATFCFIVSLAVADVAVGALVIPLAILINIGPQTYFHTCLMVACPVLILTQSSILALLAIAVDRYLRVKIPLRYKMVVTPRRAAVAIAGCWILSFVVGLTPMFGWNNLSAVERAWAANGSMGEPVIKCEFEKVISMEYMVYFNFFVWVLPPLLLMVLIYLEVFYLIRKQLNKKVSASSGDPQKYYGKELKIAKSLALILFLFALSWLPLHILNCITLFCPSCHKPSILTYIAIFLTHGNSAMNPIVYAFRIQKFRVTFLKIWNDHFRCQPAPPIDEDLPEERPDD
Description: Human recombinant adenosine receptor binding, A1 (h), [3H]DPCPX. The following applies: for A1 Selectivity vs. A2A / A1 Selectivity vs. A2B / A1 Selectivity vs. A3: ratio of Ki. On the procedure:
as §1, §2, §3

For assay [5], the target named is T5, A1 (h) (agonist site) adenosine receptor (Homo sapiens, UniProt P30542).
T5 construct: expressed in transfected cells
T5 sequence (P30542 1-326): T4 sequence (P30542 1-326)
Description: Human recombinant adenosine receptor binding, A1 (h) (agonist site), [3H]CCPA. As to conditions: for Ki / IC50 / nH (Hill coefficient), A1 (h) (agonist site): [3H]CCPA, Table 5; for Ki: Cheng Prusoff. On the procedure: as §1, §2, §3

The next assay addresses T6, adenosine A1 receptors (Cavia porcellus, UniProt P47745).
T6 construct: from tissue; host or cells: guinea pig left atria
T6 sequence (P47745 1-326): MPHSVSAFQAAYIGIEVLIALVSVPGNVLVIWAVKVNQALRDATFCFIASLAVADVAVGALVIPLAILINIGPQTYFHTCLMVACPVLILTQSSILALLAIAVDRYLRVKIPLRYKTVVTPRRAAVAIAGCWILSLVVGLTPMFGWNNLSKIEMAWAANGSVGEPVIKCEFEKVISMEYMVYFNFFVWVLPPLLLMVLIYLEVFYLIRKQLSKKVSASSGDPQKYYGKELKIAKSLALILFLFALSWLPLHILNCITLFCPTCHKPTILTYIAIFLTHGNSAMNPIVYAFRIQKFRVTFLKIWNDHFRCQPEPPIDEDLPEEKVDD
Description: Adenosine A1 in vitro functional test, negative inotropic response in left atria (Schild plot). Type of assay: cell-based. As to conditions: guinea pig left atria, agonist NECA or CPA, read-out: KB (antagonist dissociation constant). On the procedure:
A1 assay—Negative inotropic response (Barrett, R. J. et al., J. Pharmacol. Exp. Ther. 265:227-236 (1993)): Guinea pig left atria were placed in organ baths filled with Krebs Henseleit solution gassed with 95% O2 and 5% CO2 and maintained at a temperature of 31° C. An initial resting tension of 1 g was placed on each tissue, which was allowed to equilibrate. Atria were stimulated electrically to produce twitch responses. A fixed concentration of the test compound was added and the tissue was allowed to equilibrate for 1 hour before cumulative additions of an adenosine agonist (either 5′-N-ethylcarboxamidoadenosine (NECA) or N^6-cyclopentyladenosine (CPA)) to generate a dose response curve. This procedure was repeated with different concentrations of test compounds to generate a family of dose response curves. Schild plots were constructed from the resultant concentration-effect curves, and KB (antagonist dissociation constant) values were obtained. The results presented in Table 9 are expressed as KB values (concentrations of test compound such that one-half of the tissue adenosine receptor population is occupied by the test compound).

The mark [6] stands for this setting: Cheng Prusoff, Table 6, read-out: Ki, A2A (h).
Setting [7] is: Table 8, read-out: Affinity Ki, A2A.
The mark [8] stands for this setting: Table 8, read-out: Affinity Ki, A1.
The mark [9] stands for this setting: [3H]DPCPX, Cheng Prusoff, Table 5, read-out: Ki, A1 (h).

Where two headings read alike, the source gives them in different places.

T2 sequence (P29274 whole entry): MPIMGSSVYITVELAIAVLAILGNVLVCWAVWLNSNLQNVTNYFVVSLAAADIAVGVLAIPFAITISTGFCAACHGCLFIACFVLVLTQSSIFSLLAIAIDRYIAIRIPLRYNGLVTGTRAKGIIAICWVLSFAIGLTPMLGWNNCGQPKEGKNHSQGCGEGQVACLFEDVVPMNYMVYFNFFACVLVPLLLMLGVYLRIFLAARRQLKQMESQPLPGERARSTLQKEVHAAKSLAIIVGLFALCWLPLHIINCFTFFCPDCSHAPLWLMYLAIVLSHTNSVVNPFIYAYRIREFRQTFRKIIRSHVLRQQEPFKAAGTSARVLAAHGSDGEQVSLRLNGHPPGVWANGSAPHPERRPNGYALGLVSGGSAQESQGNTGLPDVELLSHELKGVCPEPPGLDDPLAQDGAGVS

On to `CC(C)N(C)c1nc2c(NC3CC4CC3CC4OCCCS(=O)(=O)O)ncnc2n1C` (single isomer, unassigned) [Compound 1 (+isomer)], for which the IC50 in assay [1] (Table 7, N.C. = not calculable, less than 25% inhibition at the highest tested concentration) is more than 100 µM; in assay [2] (Table 6) it was 3.2 µM; in assay [4] ([3H]DPCPX, Table 5), 52 nM; in assay [5], 210 nM. Moreover, the Ki in assay [1] was more than 100 µM; in assay [2] (setting [6]), 2.6 µM; in assay [2] (setting [7]) it was 2.6 µM; in assay [3], more than 100 µM; in assay [4] (setting [8]), 32 nM; in assay [4] (setting [9]) it was 32 nM. In assay [5], the Ki came out at 85 nM. Also, in assay [2] (Table 6), the “nH (Hill coefficient), A2A (h)” value is reported as 0.8. For the same compound, the “nH (Hill coefficient), A1 (h)” value in assay [4] ([3H]DPCPX, Table 5) was found to be 0.9. The “A1 Selectivity vs. A2A” value in assay [4] (Table 8) is reported as 81. The “A1 Selectivity vs. A2B” value in assay [4] (Table 8) is recorded as more than 3000. For the same compound, the “A1 Selectivity vs. A3” value in assay [4] (Table 8) was more than 3000. Also, in assay [5], the “nH (Hill coefficient), A1 (h) (agonist site)” value is reported as 1.3. Further, the Kb on adenosine A1 receptors was determined as 32 µM.
Regarding `CC(C)N(C)c1nc2c(NC3CC4CC3CC4OCCCS(=O)(=O)O)ncnc2n1C` (single isomer, unassigned) [1 (−isomer)], the Ki was more than 100 µM in assay [1]; 82 µM in assay [2] (setting [6]); 82 µM in assay [2] (setting [7]); more than 100 µM in assay [3]; 1100 nM in assay [4] (setting [8]); 1100 nM in assay [4] (setting [9]). For the same compound, the Ki in assay [5] was found to be 1800 nM. The IC50 in assay [2] (Table 6) was found to be 100 µM; in assay [4] ([3H]DPCPX, Table 5), 1800 nM; in assay [5] it was 4300 nM. In assay [2] (Table 6), the “nH (Hill coefficient), A2A (h)” value came out at 1.4. Besides, in assay [4] ([3H]DPCPX, Table 5), the “nH (Hill coefficient), A1 (h)” value is on record as 1.0. Moreover, the “A1 Selectivity vs. A2A” value in assay [4] (Table 8) is listed as 75. For the same compound, in assay [4] (Table 8), the “A1 Selectivity vs. A2B” value is more than 3000. In assay [4] (Table 8), the “A1 Selectivity vs. A3” value was more than 3000. Moreover, the “nH (Hill coefficient), A1 (h) (agonist site)” value in assay [5] worked out at 1.0. The Kb on adenosine A1 receptors turned out to be 0.3 µM.
In the case of `CC(C)N(C)c1nc2c(N[C@H]3CC[C@H](OCCCS(=O)(=O)O)CC3)ncnc2n1C` [Compound 6, N^6-[trans-4′-(^3-sulfopropoxy)cyclohexyl]-8-isopropylmethylamino-9-methyladenine], the Kb on adenosine A1 receptors amounted to 85 µM.
Consider `CC(C)N(C)c1nc2c(NC3CC4CC3CC4O)[n+](C)cnc2n1C.[Cl-]` (stereo not drawn) [Compound 14, N^6-(endo-5′-hydroxynorbornyl)-1-methyl-8-isopropylmethylamino-9-methyladenine chloride], for which the “Percent Inhibition of Control Specific Binding, A3 (h)” value in assay [1] (compound at 1×10^−5M, HEK-293 cells, [3H]AB-MECA 0.15 nM) is given as 5. Besides, the “Percent Inhibition of Control Specific Binding, A2A (h)” value in assay [2] (compound at 1×10^−5M, HEK-293 cells, [3H]CGS 21680 6 nM) is −9. In addition, in assay [3] (compound at 1×10^−5M, HEK-293 cells, [3H]MRS 1754 0.5 nM), the “Percent Inhibition of Control Specific Binding, A2B (h)” value came to 5. The “Percent Inhibition of Control Specific Binding, A1 (h)” value in assay [4] (compound at 1×10^−5M, CHO cells, [3H]DPCPX 1 nM) was −1. The “Percent Inhibition of Control Specific Binding, A1 (h) (agonist site)” value in assay [5] (compound at 1×10^−5M, CHO cells, [3H]CCPA 1 nM) was 18.

Broadly, the IC50 is the point on the concentration scale where inhibition reaches its midpoint. In general, Ki refers to the equilibrium dissociation constant of an inhibitor or competing ligand from its target. Usually Kb stands for the equilibrium dissociation constant of an antagonist, usually derived from a functional assay.
